# Assays:
# Kaposi sarcoma [1] = test: Clinical response of KS to rapamycin; assay type: in vivo, human
# interleukin-6 (IL6) = test: Plasma IL6 by ELISA; assay type: in vivo, human; conditions: baseline median 8.22pg/ml
# phospho-RPS6 (pRPS6) = test: IHC of KS biopsies for phospho-RPS6; assay type: in vivo, human
# [2] = tested on: KSHV latency associated nuclear antigen (LANA); test: IHC of KS biopsies for KSHV LANA; assay type: in vivo, human; conditions: KS biopsies on treatment vs baseline
# [3] = tested on: phospho-Akt (Ser473) and phospho-Akt (T308); test: IHC of KS biopsies for phospho-Akt; assay type: in vivo, human; conditions: KS biopsies on treatment vs baseline
# [4] = Rapamycin trough blood concentrations; assay type: in vivo, human
# HIV [5] = conditions: in culture; cited from earlier work
# [6] = Safety and adverse event monitoring
# [7] = tested on: cytochrome P450 3A4 (CYP3A4); conditions: cited from earlier work
# P-glycoprotein = conditions: cited from earlier work
# HIV [8] = test: HIV viral load monitoring; assay type: in vivo, human; conditions: during rapamycin treatment with ART
# KSHV = KSHV plasma viral load by quantitative real-time PCR; assay type: in vivo, human
# [9] = tested on: vascular endothelial growth factor (VEGF); test: Plasma VEGF by ELISA; assay type: in vivo, human
# CD4 T-lymphocyte counts = test: CD4+ T-lymphocyte count monitoring; assay type: in vivo, human; conditions: 6 study participants with follow-up tests; median baseline 826
# Ki-67 = test: IHC of KS biopsies for Ki-67; assay type: in vivo, human; conditions: KS biopsies on treatment vs baseline
# Kaposi sarcoma [10] = conditions: HIV-uninfected renal allograft recipients; trough 6-10ng/ml; cited from earlier work
smiles,measurement,setting,value
CO[C@H]1C[C@@H]2CC[C@@H](C)[C@@](O)(O2)C(=O)C(=O)N2CCCC[C@H]2C(=O)O[C@H]([C@H](C)C[C@@H]2CC[C@@H](O)[C@H](OC)C2)CC(=O)[C@H](C)/C=C(\C)[C@@H](O)[C@@H](OC)C(=O)[C@H](C)C[C@H](C)/C=C/C=C/C=C/1C [rapamycin],number of patients with stable disease as best response,Kaposi sarcoma [1]; of seven,Three
same,number of patients with partial KS response,"Kaposi sarcoma [1]; of seven, all receiving PI/r regimens",Three
same,Best Response of KS to Rapamycin,"Kaposi sarcoma [1]; patient 001, Lopinavir/r ART, maintenance 0.2 mg biw",Partial
same,Best Response of KS to Rapamycin,"Kaposi sarcoma [1]; patient 002, Atazanavir/r ART, maintenance 0.2 mg biw",Partial
same,Best Response of KS to Rapamycin,"Kaposi sarcoma [1]; patient 003, Atazanavir/r ART, maintenance 0.3 mg tiw",Stable
same,Best Response of KS to Rapamycin,"Kaposi sarcoma [1]; patient 004, Nevirapine ART, maintenance 2.8 mg daily",Progression
same,Best Response of KS to Rapamycin,"Kaposi sarcoma [1]; patient 005, Lopinavir/r ART, maintenance 0.1 mg biw",Partial
same,Best Response of KS to Rapamycin,"Kaposi sarcoma [1]; patient 006, Efavirenz ART, maintenance 6.7 mg daily",Stable
same,Best Response of KS to Rapamycin,"Kaposi sarcoma [1]; patient 007, Efavirenz ART, maintenance 2.3 mg daily",Stable
same,response duration,Kaposi sarcoma [1]; three responding patients,43 to 50 weeks
same,time to partial KS response,Kaposi sarcoma [1]; three responding patients,3 to 9 weeks
same,changes in plasma IL6 concentrations during treatment,interleukin-6 (IL6),No significant changes
same,"overall changes from baseline in staining scores (pRPS6, phospho-Akt)","phospho-RPS6 (pRPS6); on-treatment KS biopsies, all patients, score 0 to 4",no significant changes
same,pRPS6 reactivity within KS tumor cells and overlying epithelium,"phospho-RPS6 (pRPS6); subject #5, after 50 days on drug vs baseline",decreased pRPS6 reactivity
same,pRPS6 staining compared to baseline,"phospho-RPS6 (pRPS6); three of four subjects biopsied at day 50 or later, all on PI/r-based ART",decreased pRPS6 staining
same,changes in LANA staining,[2],no significant changes
same,changes in Akt phosphorylation at T308 or Ser473,[3],no significant changes
same,time for blood levels to decline to acceptable levels after stopping rapamycin,"[4]; first patient, ritonavir-boosted lopinavir regimen, from 172ng/mL",three
same,concentration at 7 days,"[4]; human, whole blood, oral, 2 mg",123 ng/mL
same,concentration at 14 days,"[4]; human, whole blood, oral, 2 mg",172 ng/mL
same,Maximum Rapamycin Trough Level by LCMSMS,"[4]; patient 001, Lopinavir/r ART, initial 2 mg daily",172 ng/mL
same,Maximum Rapamycin Trough Level by LCMSMS,"[4]; patient 002, Atazanavir/r ART, initial 0.3 mg biw",64.4 ng/mL
same,Maximum Rapamycin Trough Level by LCMSMS,"[4]; patient 003, Atazanavir/r ART, initial 0.3 mg biw",16.8 ng/mL
same,Maximum Rapamycin Trough Level by LCMSMS,"[4]; patient 004, Nevirapine ART, initial 4.9 mg daily",13.1 ng/mL
same,Maximum Rapamycin Trough Level by LCMSMS,"[4]; patient 005, Lopinavir/r ART, initial 0.4 mg biw",19.2 ng/mL
same,Maximum Rapamycin Trough Level by LCMSMS,"[4]; patient 006, Efavirenz ART, initial 4.5 mg daily",7.4 ng/mL
same,Maximum Rapamycin Trough Level by LCMSMS,"[4]; patient 007, Efavirenz ART, initial 3.7 mg daily",11.9 ng/mL
same,effect on HIV infectivity and transcription,HIV [5],inhibits HIV infectivity and transcription in culture
same,grade of most adverse events,[6]; all seven patients experienced adverse events,most were grade 1
same,serious adverse event,"[6]; patient #4, Nevirapine ART","extensive grade 3 superficial vein thrombus requiring anticoagulation, considered possibly related to rapamycin"
same,infectious adverse events,"[6]; patient #5, pneumonia and dermatomal Herpes zoster",2 separate grade 2 infectious episodes without neutropenia
same,infectious adverse events,"[6]; patient #6, without neutropenia, resolved without treatment",grade 2 upper respiratory infection
same,overall tolerability,"[6]; seven HIV-infected KS patients on ART, trough target 5-10 ng/mL",generally well tolerated
same,substrate status for CYP3A4,[7],substrate
same,substrate status for P-glycoprotein,P-glycoprotein,substrate
same,changes in HIV VL,HIV [8],no consistent changes
same,changes in KSHV VL during rapamycin treatment,KSHV,no significant changes
same,median change in KSHV VL during treatment,"KSHV; baseline median 214, P=0.156",-138.8 copies/ml
same,changes in plasma VEGF concentrations during treatment,[9],No significant changes
same,CD4 counts during treatment,CD4 T-lymphocyte counts,> 400 cells/μL
same,changes in Ki-67 staining,Ki-67,no significant changes
same,KS outcome after change from cyclosporin A-based regimen to rapamycin,Kaposi sarcoma [10],KS regressed
